This note sets out measurements from PubChem BioAssay AID330 (DTP/NCI, 2004).

For the experiment, the system named is P388 leukemia ip, CD2F1 mice, survival T/C. Description: NCI In Vivo Anticancer Drug Screen. Data for tumor model P388 Leukemia (intraperitoneal) in CD2F1 (CDF1) mice. The following applies: endpoint: median survival time, higher = longer survival. The method in brief:
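Mice carrying the transplanted tumor received test compound or vehicle. Survival was recorded in each group, and the value is the treated-group measurement divided by that of the vehicle-treated control group.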

[1] abbreviates: dose: 50.0 mg/kg/injection, schedule: Q01DX005 (ip), vehicle: saline with Tween-80.
The mark [2] stands for this setting: dose: 100.0 mg/kg/injection, schedule: Q01DX005 (ip), vehicle: saline with Tween-80.
The mark [3] stands for this setting: dose: 200.0 mg/kg/injection, schedule: Q01DX005 (ip), vehicle: saline with Tween-80.
The mark [4] stands for this setting: dose: 1.0 mg/kg/injection, schedule: Q01DX009 (ip), vehicle: saline.
Setting [5] is: dose: 2.0 mg/kg/injection, schedule: Q01DX009 (ip), vehicle: saline.
The mark [6] stands for this setting: dose: 50.0 mg/kg/injection, schedule: Q01DX005 (ip), vehicle: Klucel (hydroxypropylcellulose) (HPC).
The mark [7] stands for this setting: dose: 100.0 mg/kg/injection, schedule: Q01DX005 (ip), vehicle: Klucel (hydroxypropylcellulose) (HPC).
Setting [8] is: dose: 200.0 mg/kg/injection, schedule: Q01DX005 (ip), vehicle: Klucel (hydroxypropylcellulose) (HPC).
Setting [9] is: dose: 12.5 mg/kg/injection, schedule: Q01DX005 (ip), vehicle: saline with Tween-80.
The mark [10] stands for this setting: dose: 25.0 mg/kg/injection, schedule: Q01DX005 (ip), vehicle: saline with Tween-80.
The mark [11] stands for this setting: dose: 60.0 mg/kg/injection, schedule: Q01DX005 (ip), vehicle: saline with Tween-80.
The mark [12] stands for this setting: dose: 120.0 mg/kg/injection, schedule: Q01DX005 (ip), vehicle: saline with Tween-80.
Setting [13] is: dose: 240.0 mg/kg/injection, schedule: Q01DX005 (ip), vehicle: saline with Tween-80.
Setting [14] is: dose: 50.0 mg/kg/injection, schedule: Q01DX005 (ip), vehicle: saline.

Where “and” joins values, the source holds several entries; their conditions need not be identical. Equal values may be shown once. Toxic doses and inconclusive results are not listed.

On to `Cc1noc(/C=C\c2ccccc2O)c1[N+](=O)[O-]`, for which the T/C under setting [1] was 92 % of control, the T/C under setting [2] was 99 % of control and the T/C under setting [3] is 97 % of control.

For `CCCCCCCNN=NCC(C)C(C)CC` (configuration not stated), the T/C runs as follows: (dose: 100.0 mg/kg/injection, schedule: Q04DX003 (ip), vehicle: saline) 95 % of control; (dose: 200.0 mg/kg/injection, schedule: Q04DX003 (ip), vehicle: saline) 95 % of control; (dose: 400.0 mg/kg/injection, schedule: Q04DX003 (ip), vehicle: saline) 97 % of control.

Regarding `[Cl][Mn][Cl]`, the T/C is 99 % of control (dose: 0.25 mg/kg/injection, schedule: Q01DX009 (ip), vehicle: saline); 90 % of control and 97 % of control (dose: 0.5 mg/kg/injection, schedule: Q01DX009 (ip), vehicle: saline); 100 % of control under setting [4]; 88 % of control and 94 % of control under setting [5]; 119 % of control (dose: 4.0 mg/kg/injection, schedule: Q01DX009 (ip), vehicle: suspension in saline); 90 % of control (dose: 8.0 mg/kg/injection, schedule: Q01DX009 (ip), vehicle: saline). Further, the T/C (dose: 8.0 mg/kg/injection, schedule: Q01DX009 (ip), vehicle: suspension in saline) is 97 % of control; the T/C (dose: 16.0 mg/kg/injection, schedule: Q01DX009 (ip), vehicle: saline) is 100 % of control; the T/C (dose: 16.0 mg/kg/injection, schedule: Q01DX009 (ip), vehicle: suspension in saline) was 116 % of control; the T/C (dose: 32.0 mg/kg/injection, schedule: Q01DX009 (ip), vehicle: suspension in saline) was 119 % of control; the T/C (dose: 64.0 mg/kg/injection, schedule: Q01DX009 (ip), vehicle: saline) is 100 % of control and 106 % of control; the T/C (dose: 64.0 mg/kg/injection, schedule: Q01DX009 (ip), vehicle: suspension in saline) is 97 % of control.

Take `CC1(C)OC2(C)CCC1C1C2N1C(=O)c1ccc([N+](=O)[O-])cc1` (configuration not stated): the T/C reads like this: under setting [6], 96 % of control; under setting [7], 102 % of control; under setting [8], 110 % of control.

Turning to `CCCN(CCC)C(=O)CN(C=O)c1ncc([N+](=O)[O-])s1`, the T/C was 104 % of control (dose: 25.0 mg/kg/injection, schedule: Q01DX001 (ip), vehicle: saline); 108 % of control (dose: 50.0 mg/kg/injection, schedule: Q01DX001 (ip), vehicle: saline); 107 % of control (dose: 100.0 mg/kg/injection, schedule: Q01DX001 (ip), vehicle: saline).

In the case of `NC(=O)c1cc(C(N)=O)n(C2OC(CO)C(O)C2O)n1` (configuration not stated), the T/C (dose: 30.0 mg/kg/injection, schedule: Q04DX002 (ip), vehicle: saline) is 98 % of control and 99 % of control; the T/C (dose: 60.0 mg/kg/injection, schedule: Q04DX002 (ip), vehicle: saline) is 104 % of control and 93 % of control; the T/C (dose: 120.0 mg/kg/injection, schedule: Q04DX002 (ip), vehicle: saline) was 98 % of control and 93 % of control.

In the case of `C/C(Cl)=C\c1nc2ccccc2nc1Cl`, the T/C by setting is: (dose: 100.0 mg/kg/injection, schedule: Q01DX001 (ip), vehicle: Klucel (hydroxypropylcellulose) (HPC)) 100 % of control; (dose: 200.0 mg/kg/injection, schedule: Q01DX001 (ip), vehicle: Klucel (hydroxypropylcellulose) (HPC)) 92 % of control; (dose: 400.0 mg/kg/injection, schedule: Q01DX001 (ip), vehicle: Klucel (hydroxypropylcellulose) (HPC)) 92 % of control.

As for `CC(C)(C)OOC(=O)c1ccccc1O`, the T/C (dose: 100.0 mg/kg/injection, schedule: Q04DX003 (ip), vehicle: saline sonified) was 100 % of control and the T/C (dose: 200.0 mg/kg/injection, schedule: Q04DX003 (ip), vehicle: saline sonified) was 100 % of control.

Take `Cc1cc(=O)c2ccc3c(c2[nH]1)Oc1ccc2c(=O)cc(C)[nH]c2c1O3`: the T/C reads like this: under setting [1], 98 % of control; under setting [2], 101 % of control; under setting [3], 98 % of control.

For `C=C(C)C(=O)OC1C/C(CO)=C\C(OC(C)=O)C/C(C)=C/C2OC(=O)C(=C)C21` (configuration not stated), the T/C was 113 % of control (dose: 3.75 mg/kg/injection, schedule: Q01DX009 (ip), vehicle: saline + alcohol); 115 % of control (dose: 7.5 mg/kg/injection, schedule: Q01DX009 (ip), vehicle: saline + alcohol); 120 % of control (dose: 15.0 mg/kg/injection, schedule: Q01DX009 (ip), vehicle: saline + alcohol).

For `COc1cc2c(cc1O)N=C[C@@H]1CCC(O)N1C2=O` (mixture of isomers), the T/C was 96 % of control under setting [4] and 104 % of control under setting [5].

Regarding `COc1cc2c(cc1OC)CN1CCc3cc(OC)c(OC)cc3[C@@H]1C2`, the T/C was 100 % of control under setting [9]; 102 % of control under setting [10]; 104 % of control and 98 % of control under setting [1].

In the case of `CC1(C)C[C@@]2(F)C(=O)NC(=O)N[C@@H]12`, the T/C is 103 % of control (dose: 12.5 mg/kg/injection, schedule: Q01DX001 (ip), vehicle: Klucel (hydroxypropylcellulose) (HPC)); 106 % of control (dose: 25.0 mg/kg/injection, schedule: Q01DX001 (ip), vehicle: Klucel (hydroxypropylcellulose) (HPC)); 99 % of control (dose: 50.0 mg/kg/injection, schedule: Q01DX001 (ip), vehicle: Klucel (hydroxypropylcellulose) (HPC)).

Consider `COC(c1ccccc1)C1(O)CCN(C)CC1` (configuration not stated), for which the T/C reads like this: (dose: 72.0 mg/kg/injection, schedule: Q04DX002 (ip), vehicle: Klucel (hydroxypropylcellulose) (HPC)) 98 % of control; (dose: 144.0 mg/kg/injection, schedule: Q04DX002 (ip), vehicle: Klucel (hydroxypropylcellulose) (HPC)) 97 % of control; (dose: 288.0 mg/kg/injection, schedule: Q04DX002 (ip), vehicle: Klucel (hydroxypropylcellulose) (HPC)) 98 % of control.

In the case of `O=C(O)/C=N/NS(=O)(=O)c1ccc2ccccc2c1`, the T/C reads like this: (dose: 50.0 mg/kg/injection, schedule: Q01DX009 (ip), vehicle: other) 161 % of control and 164 % of control; (dose: 200.0 mg/kg/injection, schedule: Q01DX009 (ip), vehicle: other) 153 % of control.

As to `Cc1cc2cc3c(c(C(=O)O)c2o1)C(=O)c1ccc2ccccc2c1C3`, the T/C under setting [11] was 97 % of control, the T/C under setting [12] was 101 % of control and the T/C under setting [13] was 94 % of control.

As for `COC(=O)NC1CCC(=O)N1Cc1ccccc1` (configuration not stated), the T/C under setting [11] is 96 % of control, the T/C under setting [12] was 94 % of control and the T/C under setting [13] was 102 % of control.

In the case of `C=C1C(=O)OC2CC3(C)OC3CC/C(C)=C/C(OC(C)=O)C12` (configuration not stated), the T/C runs as follows: under setting [9], 111 % of control; under setting [10], 111 % of control; under setting [1], 111 % of control and 112 % of control.

For the compound `CN1CCC(CCl)C(c2ccccc2)C1` (configuration not stated), the T/C (dose: 12.5 mg/kg/injection, schedule: Q01DX005 (ip), vehicle: saline) was 100 % of control; the T/C (dose: 25.0 mg/kg/injection, schedule: Q01DX005 (ip), vehicle: saline) is 100 % of control; the T/C under setting [14] is 107 % of control.

Regarding `CCc1nc2c(cnn2C)c(=O)n1-c1ccccc1Cl`, the T/C is, setting by setting: under setting [6], 100 % of control; under setting [7], 100 % of control; under setting [8], 102 % of control.

Turning to `S=C1N(c2ccc(Cl)cc2)C2=C(N=Nc3ccccc3)C(=Nc3ccccc3S2)N1c1ccccn1`, the T/C runs as follows: under setting [1], 109 % of control; under setting [2], 108 % of control.

With `CC(=O)N1CCN(C(C)=O)C2C1N(C(C)=O)CCN2C(C)=O` (configuration not stated), the T/C by setting is: under setting [14], 117 % of control; (dose: 60.0 mg/kg/injection, schedule: Q01DX005 (ip), vehicle: saline) 105 % of control; (dose: 100.0 mg/kg/injection, schedule: Q01DX005 (ip), vehicle: saline) 105 % of control; (dose: 120.0 mg/kg/injection, schedule: Q01DX005 (ip), vehicle: saline) 107 % of control; (dose: 200.0 mg/kg/injection, schedule: Q01DX005 (ip), vehicle: saline) 115 % of control; (dose: 240.0 mg/kg/injection, schedule: Q01DX005 (ip), vehicle: saline) 100 % of control.

For `N#CNc1c2ccccc2nc2ccccc12`, the T/C by setting is: (dose: 15.0 mg/kg/injection, schedule: Q01DX005 (ip), vehicle: saline with Tween-80) 101 % of control; (dose: 30.0 mg/kg/injection, schedule: Q01DX005 (ip), vehicle: saline with Tween-80) 97 % of control; under setting [11], 99 % of control and 100 % of control.
